Patent publication US20060069132A1, “Azolecarboxamide herbicides” (priority 2004, published 2006)

What was measured:
redroot pigweed = experiment: Test A pre-/postemergence herbicide test; type: in vivo, Amaranthus retroflexus
How it was run: (§1)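 Visual injury rating on a 0–100 scale (0 no effect, 100 complete control) versus untreated controls, about ten days after treatment in greenhouse. Pre: directed soil spray onto seeded sandy loam. Post: spray to runoff on plants 2–10 cm tall at one- to two-leaf stage.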

goosegrass = experiment: Test C pre-/postemergence herbicide test; type: in vivo, Eleusine indica; details: for Goosegrass plant response rating: 500 g ai/ha
How it was run: (§2)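 Pre- and postemergence application, solvent/surfactant formulation; post at 1- to 4-leaf stage (2–18 cm). Greenhouse 12–14 d. Visual rating vs controls, 0 = no effect, 100 = complete control.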

blackgrass = experiment: Test B postemergence herbicide test; type: in vivo, Alopecurus myosuroides; details: scale 0 (no effect) to 100 (complete control); for Plant response rating, Blackgrass: visual rating after 13 to 15 days
How it was run: (§3)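 Visual ratings, 0 (no effect) to 100 (complete control), made versus controls after 13–15 d greenhouse. Paddy plants treated at 2-leaf stage; postemergence plants at 1- to 4-leaf stage, 2–18 cm tall.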

woolly cupgrass = experiment: Test C pre-/postemergence herbicide test; type: in vivo, Eriochloa villosa; details: for Cupgrass, Woolly plant response rating: 500 g ai/ha
How it was run: as §2

[1] = system: small flower umbrella sedge; experiment: Test B flooded paddy test; type: in vivo, Cyperus difformis; details: 1000 g ai/ha, visual rating, scale 0 to 100 (0 no effect, 100 complete control), 13 to 15 days
How it was run: as §3

large crabgrass = experiment: Test A pre-/postemergence herbicide test; type: in vivo, Digitaria sanguinalis
How it was run: as §1

bermudagrass = experiment: Test C pre-/postemergence herbicide test; type: in vivo, Cynodon dactylon
How it was run: as §2

rice = experiment: Test C flooded paddy test; type: in vivo, Oryza sativa; details: for Plant response rating, Rice: visual rating after 12 to 14 days
How it was run: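 Postemergence sprays applied to plants 2 to 18 cm tall (1- to 4-leaf stage); paddy species grown to 2-leaf stage under flooding. After 12 to 14 days in greenhouse, visual rating versus untreated controls on 0–100 scale (0 no effect, 100 complete control).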

barnyardgrass = experiment: Test A pre-/postemergence herbicide test; type: in vivo, Echinochloa crus-galli
How it was run: as §1

[2] = Postemergence, 500 g ai/ha, 0 to 100 scale, 0 no effect, 100 complete control
[3] = Postemergence, 2000 g ai/ha, 0 to 100 scale, 0 no effect, 100 complete control
[4] = Preemergence, 2000 g ai/ha, visual rating, 0 to 100 scale (0 no effect, 100 complete control)
[5] = 125 g ai/ha, scale 0 (no effect) to 100 (complete control), visual, 12 to 14 days, preemergence
[6] = Postemergence, 250 g ai/ha, scale 0 to 100, 0 no effect, 100 complete control
[7] = Preemergence, scale 0 to 100, 0 no effect, 100 complete control
[8] = postemergence, 125 g ai/ha, scale 0 to 100
[9] = postemergence, 62 g ai/ha, scale 0 to 100
[10] = postemergence, 125 g ai/ha, visual rating
[11] = 250 g ai/ha, scale 0 to 100 (0 no effect, 100 complete control), visual, 12 to 14 days, preemergence
[12] = Preemergence, 500 g ai/ha, visual rating, 0 to 100 scale (0 no effect, 100 complete control)
[13] = Preemergence, 500 g ai/ha, scale 0 to 100, 0 no effect, 100 complete control
[14] = 62 g ai/ha, scale 0 to 100 (0 no effect, 100 complete control)
[15] = Preemergence, 2000 g ai/ha, 0 to 100 scale, 0 no effect, 100 complete control
[16] = 125 g ai/ha, scale 0-100, preemergence
[17] = Postemergence, 125 g ai/ha, scale 0 to 100, 0 no effect, 100 complete control
[18] = 125 g ai/ha, scale of 0 to 100, 0 is no effect, 100 is complete control
[19] = 500 g ai/ha, scale 0 to 100 (0 no effect, 100 complete control)
[20] = 31 g ai/ha, preemergence, scale 0 to 100

C#CCNC(=O)c1cccc(NC(=O)c2cc(C(C)(C)C)nn2CC)n1 [Compound 147]
Pigweed plant response rating (redroot pigweed; [2]): 90 | Plant response rating, Pigweed (redroot pigweed; [3]): 100 | Pigweed plant response rating (redroot pigweed; [4]): 100 | Pigweed plant response rating (redroot pigweed; preemergence, 500 g ai/ha, visual injury, 0 to 100 scale (0 no effect, 100 complete control)): 85 | Plant response rating (0 = no effect, 100 = complete control), Goosegrass (goosegrass; 62 g ai/ha, preemergence): 0 | Plant response rating, Goosegrass (goosegrass; [5]): 20 | Goosegrass plant response rating (goosegrass; Postemergence, scale 0 to 100): 5 | Plant response rating, Goosegrass (goosegrass; [6]): 5 | Goosegrass plant response rating (goosegrass; [7]): 80 | Plant response rating, Goosegrass (goosegrass; [8]): 0 | Plant response rating, Goosegrass (goosegrass; [9]): 0 | Blackgrass plant response rating (blackgrass; [10]): 10 | Blackgrass plant response rating (blackgrass; postemergence, 500 g ai/ha, visual rating): 20 | Plant response rating (0 = no effect, 100 = complete control), Cupgrass, Woolly (woolly cupgrass; 62 g ai/ha, preemergence): 0 | Plant response rating, Cupgrass, Woolly (woolly cupgrass; [5]): 10 | Plant response rating, Cupgrass, Woolly (woolly cupgrass; [11]): 10 | Cupgrass, Woolly plant response rating (woolly cupgrass; Postemergence, scale 0 to 100): 30 | Plant response rating, Cupgrass, Woolly (woolly cupgrass; [6]): 10 | Cupgrass, Woolly plant response rating (woolly cupgrass; [7]): 60 | Plant response rating, Cupgrass, Woolly (woolly cupgrass; [8]): 0 | Plant response rating, Cupgrass, Woolly (woolly cupgrass; [9]): 0 | Sedge, Umbrella plant response rating [1]: 90 | Crabgrass, Large plant response rating (large crabgrass; [2]): 40 | Plant response rating, Crabgrass, Large (large crabgrass; [3]): 90 | Crabgrass, Large plant response rating (large crabgrass; [12]): 85 | Crabgrass, Large plant response rating (large crabgrass; [4]): 90 | Plant response rating (0 = no effect, 100 = complete control), Bermudagrass (bermudagrass; 62 g ai/ha, preemergence): 40 | Plant response rating, Bermudagrass (bermudagrass; [5]): 70 | Plant response rating, Bermudagrass (bermudagrass; [11]): 90 | Plant response rating, Bermudagrass (bermudagrass; [6]): 70 | Bermudagrass plant response rating (bermudagrass; [13]): 95 | Rice plant response rating (rice; 16 g ai/ha, scale 0 to 100): 0 | Rice plant response rating (rice; 31 g ai/ha, scale 0 to 100): 0 | Rice plant response rating (rice; [14]): 0 | Rice plant response rating (rice; 125 g ai/ha, scale 0 to 100 (0 no effect, 100 complete control)): 0 | Barnyardgrass plant response rating (barnyardgrass; [2]): 55 | Plant response rating, Barnyardgrass (barnyardgrass; [3]): 95 | Barnyardgrass plant response rating (barnyardgrass; [12]): 40 | Barnyardgrass plant response rating (barnyardgrass; [4]): 95

C=Cn1nc(C(C)(C)C)cc1C(=O)Nc1cccc(C(=O)N(CC)CC)c1 [Compound 34]
Plant response rating, Pigweed (redroot pigweed; [2]): 90 | Plant response rating, Pigweed (redroot pigweed; [3]): 90 | Pigweed plant response rating (redroot pigweed; [12]): 100 | Pigweed plant response rating (redroot pigweed; [15]): 100 | Plant response rating (0 = no effect, 100 = complete control), Goosegrass (goosegrass; 62 g ai/ha, preemergence): 20 | Plant response rating, Goosegrass (goosegrass; [16]): 80 | Plant response rating, Goosegrass (goosegrass; [11]): 100 | Goosegrass plant response rating (goosegrass; Postemergence, scale 0 to 100): 40 | Plant response rating, Goosegrass (goosegrass; [17]): 40 | Plant response rating, Goosegrass (goosegrass; [6]): 40 | Goosegrass plant response rating (goosegrass; [7]): 100 | Plant response rating, Goosegrass (goosegrass; [9]): 30 | Blackgrass plant response rating (blackgrass; Postemergence, 125 g ai/ha): 10 | Plant response rating, Blackgrass (blackgrass; Postemergence, 500 g ai/ha): 20 | Plant response rating (0 = no effect, 100 = complete control), Cupgrass, Woolly (woolly cupgrass; 62 g ai/ha, preemergence): 10 | Plant response rating, Cupgrass, Woolly (woolly cupgrass; [16]): 20 | Plant response rating, Cupgrass, Woolly (woolly cupgrass; [11]): 70 | Cupgrass, Woolly plant response rating (woolly cupgrass; Postemergence, scale 0 to 100): 90 | Plant response rating, Cupgrass, Woolly (woolly cupgrass; [17]): 60 | Plant response rating, Cupgrass, Woolly (woolly cupgrass; [6]): 80 | Cupgrass, Woolly plant response rating (woolly cupgrass; [7]): 70 | Plant response rating, Cupgrass, Woolly (woolly cupgrass; [9]): 40 | Sedge, Umbrella plant response rating [1]: 80 | Plant response rating, Crabgrass, Large (large crabgrass; [2]): 30 | Plant response rating, Crabgrass, Large (large crabgrass; [3]): 50 | Crabgrass, Large plant response rating (large crabgrass; [12]): 60 | Crabgrass, Large plant response rating (large crabgrass; [15]): 100 | Plant response rating (0 = no effect, 100 = complete control), Bermudagrass (bermudagrass; 62 g ai/ha, preemergence): 20 | Plant response rating, Bermudagrass (bermudagrass; [16]): 50 | Plant response rating, Bermudagrass (bermudagrass; [11]): 90 | Bermudagrass plant response rating (bermudagrass; Postemergence, 500 g ai/ha, scale 0 to 100): 50 | Plant response rating, Bermudagrass (bermudagrass; [17]): 40 | Bermudagrass plant response rating (bermudagrass; Postemergence, 250 g ai/ha, scale 0 to 100): 50 | Bermudagrass plant response rating (bermudagrass; [13]): 100 | Plant response rating, Bermudagrass (bermudagrass; [9]): 10 | Rice plant response rating (rice; [14]): 0 | Rice plant response rating (rice; [18]): 0 | Plant response rating, Rice (rice; 250 g ai/ha, scale 0 to 100 (0 no effect, 100 complete control)): 50 | Plant response rating, Rice (rice; [19]): 55 | Plant response rating, Barnyardgrass (barnyardgrass; [2]): 45 | Plant response rating, Barnyardgrass (barnyardgrass; [3]): 80 | Barnyardgrass plant response rating (barnyardgrass; [12]): 55 | Barnyardgrass plant response rating (barnyardgrass; [15]): 80

CCOC(=O)c1cc(NC(=O)c2cc(C(C)(C)C)nn2CC)ccc1OCC [Compound 95]
Pigweed plant response rating (redroot pigweed; [2]): 85 | Plant response rating, Pigweed (redroot pigweed; [3]): 100 | Pigweed plant response rating (redroot pigweed; [12]): 100 | Pigweed plant response rating (redroot pigweed; [15]): 100 | Plant response rating, Goosegrass (goosegrass; [20]): 0 | Plant response rating (0 = no effect, 100 = complete control), Goosegrass (goosegrass; 62 g ai/ha, preemergence): 0 | Plant response rating, Goosegrass (goosegrass; [5]): 50 | Plant response rating, Blackgrass (blackgrass; Postemergence, 500 g ai/ha): 0 | Blackgrass plant response rating (blackgrass; [10]): 0 | Plant response rating, Cupgrass, Woolly (woolly cupgrass; [20]): 0 | Plant response rating (0 = no effect, 100 = complete control), Cupgrass, Woolly (woolly cupgrass; 62 g ai/ha, preemergence): 5 | Plant response rating, Cupgrass, Woolly (woolly cupgrass; [5]): 10 | Plant response rating, Cupgrass, Woolly (woolly cupgrass; [11]): 30 | Sedge, Umbrella plant response rating [1]: 80 | Crabgrass, Large plant response rating (large crabgrass; [2]): 25 | Plant response rating, Crabgrass, Large (large crabgrass; [3]): 60 | Crabgrass, Large plant response rating (large crabgrass; [12]): 50 | Crabgrass, Large plant response rating (large crabgrass; [15]): 90 | Plant response rating, Bermudagrass (bermudagrass; [20]): 10 | Plant response rating (0 = no effect, 100 = complete control), Bermudagrass (bermudagrass; 62 g ai/ha, preemergence): 70 | Plant response rating, Bermudagrass (bermudagrass; [5]): 100 | Plant response rating, Bermudagrass (bermudagrass; [11]): 100 | Rice plant response rating (rice; [14]): 10 | Rice plant response rating (rice; [18]): 10 | Rice plant response rating (rice; 250 g ai/ha, scale of 0 to 100, 0 is no effect, 100 is complete control): 55 | Plant response rating, Rice (rice; [19]): 65 | Barnyardgrass plant response rating (barnyardgrass; [2]): 30 | Plant response rating, Barnyardgrass (barnyardgrass; [3]): 55 | Barnyardgrass plant response rating (barnyardgrass; [12]): 30 | Barnyardgrass plant response rating (barnyardgrass; [15]): 50
